Data set [1] deals with T1, Proline--tRNA ligase (Plasmodium falciparum (isolate 3D7), UniProt Q8I5R7).
T1 sequence (Q8I5R7 whole entry): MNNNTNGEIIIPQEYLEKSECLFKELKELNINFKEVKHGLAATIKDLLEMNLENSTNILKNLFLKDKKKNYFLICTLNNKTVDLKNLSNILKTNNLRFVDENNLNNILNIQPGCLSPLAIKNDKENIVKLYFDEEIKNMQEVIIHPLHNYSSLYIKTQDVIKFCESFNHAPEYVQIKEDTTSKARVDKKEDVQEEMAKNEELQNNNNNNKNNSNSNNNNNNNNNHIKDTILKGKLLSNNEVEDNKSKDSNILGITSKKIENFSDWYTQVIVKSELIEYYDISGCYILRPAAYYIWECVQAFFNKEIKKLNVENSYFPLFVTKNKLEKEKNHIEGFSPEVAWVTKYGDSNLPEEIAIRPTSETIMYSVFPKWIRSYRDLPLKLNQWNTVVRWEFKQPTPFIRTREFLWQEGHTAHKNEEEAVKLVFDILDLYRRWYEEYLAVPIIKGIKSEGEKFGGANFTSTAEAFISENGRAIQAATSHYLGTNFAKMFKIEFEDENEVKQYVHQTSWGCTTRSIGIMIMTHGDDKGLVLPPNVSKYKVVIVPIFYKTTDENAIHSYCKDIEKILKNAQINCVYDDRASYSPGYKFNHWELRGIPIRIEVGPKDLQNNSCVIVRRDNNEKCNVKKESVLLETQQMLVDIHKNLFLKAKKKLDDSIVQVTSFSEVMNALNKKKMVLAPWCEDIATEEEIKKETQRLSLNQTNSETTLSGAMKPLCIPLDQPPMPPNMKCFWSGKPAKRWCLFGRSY
Description: Inhibition of Plasmodium falciparum 3D7 Prolyl-tRNA synthetase.

Data set [2] concerns the target T2, Adrenergic receptor alpha-1 (Homo sapiens, UniProt P35348+P25100+P35368).
T2 sequence (P35348 whole entry): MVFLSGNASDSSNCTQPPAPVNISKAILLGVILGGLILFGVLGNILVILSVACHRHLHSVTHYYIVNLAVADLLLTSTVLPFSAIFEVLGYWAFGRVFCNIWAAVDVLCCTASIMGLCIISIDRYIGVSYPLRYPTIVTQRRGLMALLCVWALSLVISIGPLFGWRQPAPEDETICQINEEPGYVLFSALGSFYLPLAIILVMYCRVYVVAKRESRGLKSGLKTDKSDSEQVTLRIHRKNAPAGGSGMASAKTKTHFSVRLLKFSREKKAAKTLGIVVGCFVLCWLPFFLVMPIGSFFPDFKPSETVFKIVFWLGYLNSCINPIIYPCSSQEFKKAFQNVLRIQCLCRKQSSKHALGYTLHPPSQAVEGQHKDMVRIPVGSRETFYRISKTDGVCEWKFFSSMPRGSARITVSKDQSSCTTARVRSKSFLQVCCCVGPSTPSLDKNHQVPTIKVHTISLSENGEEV
T2 sequence (P25100 whole entry): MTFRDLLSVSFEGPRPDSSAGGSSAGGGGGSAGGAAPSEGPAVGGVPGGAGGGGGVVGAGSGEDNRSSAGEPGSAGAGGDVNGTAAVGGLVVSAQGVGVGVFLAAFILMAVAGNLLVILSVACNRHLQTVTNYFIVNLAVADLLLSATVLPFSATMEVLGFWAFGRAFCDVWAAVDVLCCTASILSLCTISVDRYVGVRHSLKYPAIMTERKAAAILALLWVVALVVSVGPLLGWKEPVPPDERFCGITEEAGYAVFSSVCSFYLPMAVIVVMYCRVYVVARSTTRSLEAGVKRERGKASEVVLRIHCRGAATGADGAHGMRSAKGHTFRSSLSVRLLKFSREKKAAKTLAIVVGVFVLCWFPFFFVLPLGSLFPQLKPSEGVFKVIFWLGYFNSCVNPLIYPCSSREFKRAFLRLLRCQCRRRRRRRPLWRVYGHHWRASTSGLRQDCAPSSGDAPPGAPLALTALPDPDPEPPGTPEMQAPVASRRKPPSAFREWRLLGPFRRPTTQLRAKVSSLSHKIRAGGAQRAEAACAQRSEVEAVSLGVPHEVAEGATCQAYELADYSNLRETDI
T2 sequence (P35368 whole entry): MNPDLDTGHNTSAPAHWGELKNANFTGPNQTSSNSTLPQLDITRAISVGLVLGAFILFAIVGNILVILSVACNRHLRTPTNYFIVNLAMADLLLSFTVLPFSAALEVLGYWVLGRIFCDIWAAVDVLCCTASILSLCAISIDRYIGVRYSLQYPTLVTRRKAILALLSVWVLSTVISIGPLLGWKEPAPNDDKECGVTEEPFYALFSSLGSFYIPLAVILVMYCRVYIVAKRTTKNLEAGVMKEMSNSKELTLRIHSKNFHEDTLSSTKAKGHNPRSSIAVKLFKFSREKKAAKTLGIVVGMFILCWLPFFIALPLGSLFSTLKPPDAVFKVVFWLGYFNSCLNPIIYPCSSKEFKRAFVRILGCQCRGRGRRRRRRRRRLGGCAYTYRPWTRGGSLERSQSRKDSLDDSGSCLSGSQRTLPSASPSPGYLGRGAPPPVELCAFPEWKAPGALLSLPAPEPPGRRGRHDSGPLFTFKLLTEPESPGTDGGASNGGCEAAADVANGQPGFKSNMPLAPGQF
Description: Antagonist activity at Adrenergic alpha-1 receptor (unknown origin). It counts as functional.

The nature of data set [3]: Inhibition of PDE2 (unknown origin). More on the design: species or system Homo sapiens.
Data set [4] in a line: Inhibition of PI3K (unknown origin) by ADP-Glo assay. On the set-up: species or system Homo sapiens. (In general: ADP-Glo first removes unused ATP, then detects ADP through luciferase.)
For data set [5], the species on record is Homo sapiens. Description: Activation of GABA receptor (unknown origin). To be noted: filed as activator.
Data set [6] concerns the target Sterol 14-alpha demethylase (Trypanosoma cruzi (strain CL Brener), UniProt Q7Z1V1). Description: Inhibition of Trypanosoma cruzi Sterol 14-alpha demethylase.
Data set [7] addresses Phosphatidylinositol 4,5-bisphosphate 3-kinase catalytic subunit gamma isoform (Homo sapiens, UniProt P48736). As to the kind of experiment: Inhibition of PI3Kgamma (unknown origin).
In data set [8] the target is Epidermal growth factor receptor (Homo sapiens, UniProt P00533). As to the kind of experiment: Inhibition of EGFR (unknown origin).
Data set [9] is described as follows: Cytotoxicity against rat C6 cells assessed as reduction in cell viability incubated for 48 hrs by MTT assay. It counts as toxicity, cell-based.
Data set [10] in a line: Inhibition of COX (unknown origin). On the set-up: species or system Homo sapiens.
Data set [11] has as its system MV4-11. Description: Cytotoxicity against human MV4-11 cells assessed as cell growth inhibition incubated for 72 hrs by MTS assay. It counts as functional, cell-based. The following applies: MV4-11, 72 h. In general terms: Formazan colour is commonly taken as a measure of viable cells.
In data set [12] the test system is MOLM-13. As to the kind of experiment: Cytotoxicity against human MOLM-13 cells assessed as cell growth inhibition incubated for 72 hrs by MTS assay. It counts as functional, cell-based. The following applies: MOLM-13, 72 h.
For data set [13], the target named is Vascular endothelial growth factor receptor 2 (Homo sapiens, UniProt P35968). As to the kind of experiment: Inhibition of VEGFR-2 (unknown origin) using poly(Glu:Tyr)(4:1) and ATP as substrate by incubated for 1 hr by spectrophotometric based ELISA.
Data set [14] in a line: Cytotoxicity against human HUVEC cells assessed as cell growth inhibition incubated for 72 hrs by SRB assay. It counts as toxicity, cell-based.
Data set [15] deals with Tubulin. Description: Inhibition of tubulin polymerization (unknown origin) incubated for 30 mins in presence of GTP by spectrophotometric analysis. It counts as protein-complex assay, Homo sapiens.
Data set [16] has as its system KB. Description: Cytotoxicity against human KB cells assessed as cell growth inhibition incubated for 72 hrs by MTT assay. It counts as functional, cell-based.
Data set [17] deals with HepG2. As to the kind of experiment: Cytotoxicity against human HepG2 cells assessed as cell growth inhibition incubated for 72 hrs by MTT assay. It counts as functional, cell-based. The following applies: HepG2, 72 h.
The test system of data set [18] is K562. As to the kind of experiment: Cytotoxicity against human K562 cells assessed as cell growth inhibition incubated for 72 hrs by MTT assay. It counts as functional, cell-based. To be noted: K562, 72 h.
For data set [19], the system named is MDA-MB-231. Description: Cytotoxicity against human MDA-MB-231 cells assessed as cell growth inhibition incubated for 72 hrs by MTT assay. It counts as functional, cell-based. To be noted: MDA-MB-231, 72 h.
Data set [20] concerns HCT-8. As to the kind of experiment: Cytotoxicity against human HCT-8 cells assessed as cell growth inhibition incubated for 72 hrs by MTT assay. It counts as functional, cell-based. The following applies: HCT-8, 72 h.
The subject of data set [21] is HepG2. As to the kind of experiment: Cytotoxicity against human HepG2 cells assessed as growth inhibition by MTT assay. It counts as functional, cell-based.
The subject of data set [22] is HCT-116. As to the kind of experiment: Cytotoxicity against human HCT-116 cells. It counts as functional, cell-based.
For data set [23], the system named is HuT78. Description: Cytotoxicity against human HuT78 cells. It counts as functional, cell-based.
Data set [24] concerns the target Phosphatidylinositol 4,5-bisphosphate 3-kinase catalytic subunit alpha isoform (Homo sapiens, UniProt P42336). As to the kind of experiment: Inhibition of PI3Kalpha (unknown origin).
In data set [25] the target is Histone deacetylase. Description: Inhibition of HDAC (unknown origin). It counts as protein assay, Homo sapiens.
The test system of data set [26] is K562. Description: Cytotoxicity against human K562 cells. It counts as functional, cell-based.

The term EC50 denotes the concentration at which the effect is half-maximal. For orientation: IC50 means the concentration needed to halve the response being measured. The term ED50 denotes the dose at which the effect has come halfway, by size or by number of responders. A higher ED50 goes with weaker potency.

Sequence of Phosphatidylinositol 4,5-bisphosphate 3-kinase catalytic subunit gamma isoform (P48736 whole entry, canonical isoform): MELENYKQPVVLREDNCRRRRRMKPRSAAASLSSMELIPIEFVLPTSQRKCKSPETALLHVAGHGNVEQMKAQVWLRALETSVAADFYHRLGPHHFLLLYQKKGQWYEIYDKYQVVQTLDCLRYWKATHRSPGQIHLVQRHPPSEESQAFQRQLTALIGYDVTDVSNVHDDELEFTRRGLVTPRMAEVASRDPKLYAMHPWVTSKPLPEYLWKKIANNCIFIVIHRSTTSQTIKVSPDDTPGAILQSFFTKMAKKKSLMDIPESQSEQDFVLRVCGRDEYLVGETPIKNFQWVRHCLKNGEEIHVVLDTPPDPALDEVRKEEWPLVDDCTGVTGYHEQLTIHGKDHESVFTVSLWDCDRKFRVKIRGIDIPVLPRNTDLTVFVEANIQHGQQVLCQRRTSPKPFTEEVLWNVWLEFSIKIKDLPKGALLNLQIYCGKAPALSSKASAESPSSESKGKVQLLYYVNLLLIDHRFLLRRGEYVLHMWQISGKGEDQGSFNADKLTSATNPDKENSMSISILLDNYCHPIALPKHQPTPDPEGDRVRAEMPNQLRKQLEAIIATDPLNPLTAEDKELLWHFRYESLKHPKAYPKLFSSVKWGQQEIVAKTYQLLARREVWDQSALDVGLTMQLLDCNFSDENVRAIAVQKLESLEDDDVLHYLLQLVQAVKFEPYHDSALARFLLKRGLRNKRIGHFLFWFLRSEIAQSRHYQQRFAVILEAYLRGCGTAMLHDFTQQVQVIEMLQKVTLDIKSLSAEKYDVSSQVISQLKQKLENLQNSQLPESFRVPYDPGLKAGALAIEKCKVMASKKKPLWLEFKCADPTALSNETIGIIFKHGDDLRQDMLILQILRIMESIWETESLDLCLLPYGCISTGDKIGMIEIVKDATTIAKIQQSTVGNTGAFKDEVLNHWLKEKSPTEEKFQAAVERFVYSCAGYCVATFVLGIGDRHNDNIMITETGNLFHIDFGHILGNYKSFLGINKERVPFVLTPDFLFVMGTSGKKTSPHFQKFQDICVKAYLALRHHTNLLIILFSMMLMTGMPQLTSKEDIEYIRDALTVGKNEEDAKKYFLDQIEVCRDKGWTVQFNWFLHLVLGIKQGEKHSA
Sequence of Vascular endothelial growth factor receptor 2 (P35968 whole entry): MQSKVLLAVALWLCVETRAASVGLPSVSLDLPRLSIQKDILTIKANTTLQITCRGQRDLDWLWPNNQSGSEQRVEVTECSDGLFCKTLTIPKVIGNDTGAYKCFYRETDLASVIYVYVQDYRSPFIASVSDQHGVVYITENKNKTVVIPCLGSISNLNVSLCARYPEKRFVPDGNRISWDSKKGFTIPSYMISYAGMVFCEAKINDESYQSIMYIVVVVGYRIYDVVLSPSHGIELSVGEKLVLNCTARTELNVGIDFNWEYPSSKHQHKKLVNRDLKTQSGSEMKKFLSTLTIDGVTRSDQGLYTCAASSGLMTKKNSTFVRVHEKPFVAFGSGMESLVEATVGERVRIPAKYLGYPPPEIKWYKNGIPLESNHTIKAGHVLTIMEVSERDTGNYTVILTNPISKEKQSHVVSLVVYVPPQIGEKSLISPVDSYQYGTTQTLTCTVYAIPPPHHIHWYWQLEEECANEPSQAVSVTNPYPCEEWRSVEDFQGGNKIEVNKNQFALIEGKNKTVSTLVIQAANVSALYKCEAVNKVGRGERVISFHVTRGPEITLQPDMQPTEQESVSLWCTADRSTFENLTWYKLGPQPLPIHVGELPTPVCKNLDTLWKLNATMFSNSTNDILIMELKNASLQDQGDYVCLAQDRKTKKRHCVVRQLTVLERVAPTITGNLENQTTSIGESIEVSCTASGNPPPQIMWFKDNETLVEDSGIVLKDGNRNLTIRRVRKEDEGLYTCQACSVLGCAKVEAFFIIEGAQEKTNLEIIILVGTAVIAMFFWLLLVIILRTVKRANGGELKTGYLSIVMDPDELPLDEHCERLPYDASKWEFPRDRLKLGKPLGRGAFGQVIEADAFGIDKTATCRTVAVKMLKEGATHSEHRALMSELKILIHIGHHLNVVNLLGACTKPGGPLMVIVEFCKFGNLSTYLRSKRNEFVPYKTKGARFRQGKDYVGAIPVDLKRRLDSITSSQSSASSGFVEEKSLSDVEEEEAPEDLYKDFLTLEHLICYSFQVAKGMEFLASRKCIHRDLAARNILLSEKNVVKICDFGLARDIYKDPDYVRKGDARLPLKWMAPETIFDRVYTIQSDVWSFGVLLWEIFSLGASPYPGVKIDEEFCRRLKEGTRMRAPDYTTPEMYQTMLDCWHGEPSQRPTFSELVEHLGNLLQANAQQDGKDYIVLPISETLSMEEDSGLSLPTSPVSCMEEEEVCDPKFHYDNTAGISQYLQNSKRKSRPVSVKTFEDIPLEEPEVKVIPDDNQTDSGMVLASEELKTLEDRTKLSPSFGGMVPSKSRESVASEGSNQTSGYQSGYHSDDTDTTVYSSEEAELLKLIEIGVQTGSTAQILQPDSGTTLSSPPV
Sequence of Epidermal growth factor receptor (P00533 whole entry): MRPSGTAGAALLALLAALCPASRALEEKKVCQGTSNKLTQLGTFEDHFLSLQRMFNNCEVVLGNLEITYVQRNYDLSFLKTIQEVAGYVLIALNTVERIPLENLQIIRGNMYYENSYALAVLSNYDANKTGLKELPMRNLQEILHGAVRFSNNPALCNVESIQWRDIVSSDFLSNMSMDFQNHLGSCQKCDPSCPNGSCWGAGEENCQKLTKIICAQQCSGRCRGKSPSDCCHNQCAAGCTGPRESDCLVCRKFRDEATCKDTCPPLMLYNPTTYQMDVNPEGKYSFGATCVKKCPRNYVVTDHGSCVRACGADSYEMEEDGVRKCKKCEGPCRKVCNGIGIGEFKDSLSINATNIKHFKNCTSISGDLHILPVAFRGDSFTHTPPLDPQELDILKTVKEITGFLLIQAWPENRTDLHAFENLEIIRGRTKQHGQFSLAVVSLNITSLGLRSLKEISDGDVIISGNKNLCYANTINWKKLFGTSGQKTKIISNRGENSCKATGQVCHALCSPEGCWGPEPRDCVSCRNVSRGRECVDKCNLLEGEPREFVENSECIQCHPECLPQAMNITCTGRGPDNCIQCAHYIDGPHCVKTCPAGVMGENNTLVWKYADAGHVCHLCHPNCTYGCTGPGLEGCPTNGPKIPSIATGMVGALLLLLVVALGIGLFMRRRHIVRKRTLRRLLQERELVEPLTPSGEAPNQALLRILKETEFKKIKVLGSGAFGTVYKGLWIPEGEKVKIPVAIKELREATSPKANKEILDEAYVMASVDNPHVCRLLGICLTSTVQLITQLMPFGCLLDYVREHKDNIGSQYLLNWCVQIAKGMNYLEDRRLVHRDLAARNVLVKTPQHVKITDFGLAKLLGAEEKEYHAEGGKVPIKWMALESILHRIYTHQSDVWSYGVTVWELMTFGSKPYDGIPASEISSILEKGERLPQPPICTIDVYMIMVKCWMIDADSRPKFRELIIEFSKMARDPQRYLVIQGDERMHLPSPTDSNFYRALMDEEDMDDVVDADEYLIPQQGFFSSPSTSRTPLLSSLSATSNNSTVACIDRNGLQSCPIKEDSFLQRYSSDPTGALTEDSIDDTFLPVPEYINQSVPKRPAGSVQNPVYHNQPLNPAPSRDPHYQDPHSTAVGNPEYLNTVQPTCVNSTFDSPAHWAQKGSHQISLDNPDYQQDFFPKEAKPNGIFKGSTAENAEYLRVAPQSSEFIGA
Sequence of Sterol 14-alpha demethylase (Q7Z1V1 whole entry, canonical isoform): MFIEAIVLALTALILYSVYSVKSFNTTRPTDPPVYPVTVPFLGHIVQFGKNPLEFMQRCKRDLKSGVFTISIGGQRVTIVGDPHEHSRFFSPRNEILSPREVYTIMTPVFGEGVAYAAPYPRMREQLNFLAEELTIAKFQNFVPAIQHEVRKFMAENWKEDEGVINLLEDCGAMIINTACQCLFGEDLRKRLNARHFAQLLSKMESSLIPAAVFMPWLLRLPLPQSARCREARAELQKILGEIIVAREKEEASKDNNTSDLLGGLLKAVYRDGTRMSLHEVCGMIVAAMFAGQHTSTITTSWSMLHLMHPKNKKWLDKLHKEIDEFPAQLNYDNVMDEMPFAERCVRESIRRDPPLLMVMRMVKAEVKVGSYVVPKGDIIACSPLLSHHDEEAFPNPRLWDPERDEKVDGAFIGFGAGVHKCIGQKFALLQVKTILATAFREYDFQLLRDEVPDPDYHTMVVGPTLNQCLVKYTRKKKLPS

Consider `O=C(C[C@H]1NCCC[C@@H]1O)Cn1cnc2ccccc2c1=O`, for which the EC50 in data set [1] was 4 nM.
`CCCC(=O)N1CCCN(c2nc(N)c3cc(OC)c(OC)cc3n2)CC1` [BUNAZOSIN] returned an IC50 in [2] of 1.22 nM.
`O=C1CN2Cc3c(ccc(Cl)c3Cl)N=C2N1` [ANAGRELIDE] yielded an IC50 in [3] of 26 nM.
In the case of `O=c1cc(N2CCOCC2)oc2c(-c3ccccc3)cccc12` [LY-294002], the IC50 in data set [4] came to 57300 nM.
Take `Cc1ccccc1-n1c(C)nc2ccccc2c1=O`: it took a dose of 400 µmol/kg to reach the 50% effect level in [5] (ED50).
On to `C[C@@H](n1cnc2cc(Cl)ccc2c1=O)[C@](O)(Cn1cncn1)c1ccc(F)cc1F` [ALBACONAZOLE], for which, in data set [6], inhibition was half-maximal at 1 nM (IC50).
In the case of `NC(=O)c1cc(-c2ccc3ncnc(-c4cccc(C(=O)NCCN5CCOCC5)c4)c3c2)ccc1Cl`, half-maximal inhibition in [7] (IC50) required 17 nM.
Compound `Cc1ccc2c(-c3ccccc3)nc(=O)n(C(C)C)c2c1` [PROQUAZONE] came in with an IC50 in [8] of 2 nM.
Regarding `OC1Nc2ccccc2-c2cc(-c3ccc(Cl)cc3)nn21` (centres undefined), the IC50 at 48 h in [9] is 3860 nM.
In the case of `COc1cc2nc(N3CCN(C(=O)c4ccco4)CC3)nc(N)c2cc1OC` [PRAZOSIN], it took 1900 nM to reach half-maximal inhibition in data set [10] (IC50).
On to `CN(C)CCCOc1ccc2c(NCCc3cnc(NC(=O)Nc4cccc(Cl)c4)s3)ncnc2c1`, for which the EC50 in data set [11] and in data set [12] was 5 nM in each case.
In [13], `COc1cc2ncnc(-n3ncc4cc(NC(=O)Nc5ccc(C)c(Cl)c5)ccc43)c2cc1OC` yielded an IC50 of 12 nM. The IC50 at 72 h in data set [14] is 1800 nM.
As for `COc1ccc(N(C)c2nc(NCc3cccnc3)nc3ccccc23)cc1`, the 50% inhibitory concentration (IC50) in [15] came to 2450 nM; in data set [16] it was 110 nM; in data set [17] it was 110 nM; in data set [18] it was 110 nM; in data set [19], 110 nM; in data set [20] it was 110 nM.
Consider `COc1cc([C@@H]2c3cc4c(cc3[C@@H](O[C@@H]3O[C@@H]5CO[C@@H](C)O[C@H]5[C@H](O)[C@H]3O)[C@H]3COC(=O)[C@H]23)OCO4)cc(OC)c1O` [ETOPOSIDE], for which the IC50 at 48 h in [9] was 4320 nM.
For the compound `COc1cc(C2Sc3ccccc3C(=O)N2NC(=O)c2ccc(-n3c(-c4ccncc4)nc4ccccc4c3=O)cc2)ccc1O` (centres undefined), the values for the half-inhibitory concentration (IC50) in data set [21] and in [4] were 60300 nM and 31900 nM, respectively.
Regarding `O=C(CCCCCOc1ccc2c(c1)N=C(NC(=O)c1ccccc1)N1CCN=C21)NO`, the IC50 in [22] stood at 330 nM; in [23], 62 nM; in data set [24], 2.98 nM; in data set [25] it was 50 nM; in data set [26], 95 nM.
In the case of `COc1cccc2c1C(=O)c1c(O)c3c(c(O)c1C2=O)C[C@@](O)(C(=O)CO)C[C@@H]3O[C@H]1C[C@H](N)[C@H](O)[C@H](C)O1` [DOXORUBICIN], the IC50 in [21] came out at 60300 nM.

The values are drawn from ChEMBL document CHEMBL5214889, “Therapeutic progression of quinazolines as targeted chemotherapeutic agents” (Eur J Med Chem, 2021).
